Experimental data published in patent publication US20060035314A1, “Receptors and signalling proteins capable of binding meiotic acting sterols (MAS)” (priority 2000, published 2006).

System: Mouse Oocytes
Test: Microinjection of antisense/sense oligonucleotides into mouse oocytes; FF-MAS-triggered resumption of meiosis (GVBD)
Format: cell-based
Settings: 10 μM FF-MAS (24 hours); added 20 hours after injection of approx. 12 pg of each oligonucleotide; hypoxanthine containing medium
Source text: Two antisense oligonucleotides (20 nucleotides) were utilized for microinjection: 5′-[…]-3′ and 5′-[…]-3′, complementary to the kozak sequence of the mRNA encoded by the cDNA sequence herein designated SAM1a and SAM1b, respectively, both of which are defined in SEQ ID NO: 1 and SEQ ID NO: 3, respectively, shown below. In control experiments, the corresponding sense oligonucleotides were microinjected: 5′-[…]-3′ and 5′-[…]-3′ for mRNA SAM1a and SAM1b, respectively. SAM1a antisense was co-injected with SAM1b antisense from a stock solution containing 1.25 μg/μl of each nucleotide in 10% human serum albumin (hereinafter designated HSA) plus 5 mM Tris (pH value: 7.5). SAM1a sense was co-injected with SAM1b sense from a stock solution containing 1.25 μg/μl of each nucleotide in 10% HSA plus 5 mM Tris (pH value: 7.5). Approximately 12 pg of each oligonucleotide ([…]) were injected into the cytoplasma of individual germinal vesicle (GV)-stage oocytes loaded in a droplet of alpha-MEM supplemented with 0.8% HSA and 3 mM hypoxantine under mineral oil in a 35 mm petri dish on the stage of an inverted microscope. […] The effect of FF-MAS was evaluated after 24 hours of further incubation as the number of oocytes in germinal vesicle breakdown (hereinafter designated GVBD). […]

Structure (SMILES): CC(C)=CCC[C@@H](C)[C@H]1CC=C2C3=C(CC[C@@]21C)[C@@]1(C)CC[C@H](O)C(C)(C)[C@@H]1CC3 [FF-MAS, 4,4-dimethyl-5α-cholesta-8,14,24-triene-3β-ol]
- GVBD/GVBD + GV: 26/29
